Measurements reported in US11945836B2, “Compositions and methods for treating CNS disorders” (Sage Therapeutics, Inc., priority 2014, dated 2024).

The compounds below were run against rat brain cortical membranes ([35S]-TBPS binding) (assay: Steroid inhibition of [35S]-TBPS binding (radioligand displacement)). Conditions: 3 nM [35S]-TBPS, in the presence of 5 μM GABA.
Method: Steroid Inhibition of TBPS Binding
TBPS binding assays using rat brain cortical membranes in the presence of 5 μM GABA has been described (Gee et al, J. Pharmacol. Exp. Ther. 1987, 241, 346-353; Hawkinson et al, Mol. Pharmacol. 1994, 46, 977-985; Lewin, A. H et al., Mol. Pharmacol. 1989, 35, 189-194).
Briefly, cortices are rapidly removed following decapitation of carbon dioxide-anesthetized Sprague-Dawley rats (200-250 g). The cortices are homogenized in 10 volumes of ice-cold 0.32 M sucrose using a glass/teflon homogenizer and centrifuged at 1500×g for 10 min at 4° C. The resultant supernatants are centrifuged at 10,000×g for 20 min at 4° C. to obtain the P2 pellets. The P2 pellets are resuspended in 200 mM NaCl/50 mM Na—K phosphate pH 7.4 buffer and centrifuged at 10,000×g for 10 min at 4° C. This washing procedure is repeated twice and the pellets are resuspended in 10 volumes of buffer. Aliquots (100 uL) of the membrane suspensions are incubated with 3 nM [^35S]-TBPS and 5 μL aliquots of test drug dissolved in dimethyl sulfoxide (DMSO) (final 0.5%) in the presence of 5 μM GABA. The incubation is brought to a final volume of 1.0 mL with buffer. […] Following a 90 min incubation at room temp, the assays are terminated by filtration through glass fiber filters (Schleicher and Schuell No. 32) using a cell harvester (Brandel) and rinsed three times with ice-cold buffer. Filter bound radioactivity is measured by liquid scintillation spectrometry. Non-linear curve fitting of the overall data for each drug averaged for each concentration is done using Prism (GraphPad). […] The concentration of test compound producing 50% inhibition (IC50) of specific binding and the maximal extent of inhibition (Imax) are determined for the individual experiments with the same model used for the overall data and then the means±SEMs of the individual experiments are calculated.
Various compounds are or can be screened to determine their potential as modulators of [^35S]-TBPS binding in vitro. These assays are or can be performed in accordance with the above discussed procedures.

Structure (SMILES) | IC50 [nM]
C[C@@]1(O)CC[C@H]2[C@H](CC[C@@H]3[C@@H]2CC[C@]2(C)[C@@H](C(=O)c4nccs4)CC[C@@H]32)C1 [Compound 2] | > 100
Cn1ccnc1C(=O)[C@H]1CC[C@H]2[C@@H]3CC[C@@H]4C[C@](C)(O)CC[C@@H]4[C@H]3CC[C@]12C [Compound 3] | > 100
C[C@@]1(O)CC[C@H]2[C@H](CC[C@@H]3[C@@H]2CC[C@]2(C)[C@@H](C(=O)c4cccs4)CC[C@@H]32)C1 [Compound 4] | 20 to 50
C[C@@]1(O)CC[C@H]2[C@H](CC[C@@H]3[C@@H]2CC[C@]2(C)[C@@H](C(=O)c4cc5ccccc5o4)CC[C@@H]32)C1 [Compound 5] | 20 to 50
Cn1c(C(=O)[C@H]2CC[C@H]3[C@@H]4CC[C@@H]5C[C@](C)(O)CC[C@@H]5[C@H]4CC[C@]23C)nc2ccccc21 [Compound 6] | > 100
Cn1c(C(=O)[C@H]2CC[C@H]3[C@@H]4CC[C@@H]5C[C@](C)(O)CC[C@@H]5[C@H]4CC[C@]23C)cc2ccccc21 [Compound 7] | 50 to 100
Cn1nccc1C(=O)[C@H]1CC[C@H]2[C@@H]3CC[C@@H]4C[C@](C)(O)CC[C@@H]4[C@H]3CC[C@]12C [Compound 9] | 20 to 50
C[C@@]1(O)CC[C@H]2[C@H](CC[C@@H]3[C@@H]2CC[C@]2(C)[C@@H](C(=O)c4ccsc4)CC[C@@H]32)C1 [Compound 10] | < 20
C[C@@]1(O)CC[C@H]2[C@H](CC[C@@H]3[C@@H]2CC[C@]2(C)[C@@H](C(=O)c4csc5ccccc45)CC[C@@H]32)C1 [Compound 11] | 20 to 50
C[C@@]1(O)CC[C@H]2[C@H](CC[C@@H]3[C@@H]2CC[C@]2(C)[C@@H](C(=O)c4coc5ccccc45)CC[C@@H]32)C1 [Compound 12] | 20 to 50
COc1cc(OC)cc(C(=O)[C@H]2CC[C@H]3[C@@H]4CC[C@H]5C[C@](C)(O)CC[C@]5(C)[C@H]4CC[C@]23C)c1 [Compound 13] | > 100
C[C@@]1(O)CC[C@@]2(C)[C@@H](CC[C@@H]3[C@@H]2CC[C@]2(C)[C@@H](C(=O)c4ccc5ccccc5c4)CC[C@@H]32)C1 [Compound 14] | 50 to 100
Cc1cc(C)cc(C(=O)[C@H]2CC[C@H]3[C@@H]4CC[C@@H]5C[C@](C)(O)CC[C@@H]5[C@H]4CC[C@]23C)c1 [Compound 16] | < 20
Cc1ccc(C(=O)[C@H]2CC[C@H]3[C@@H]4CC[C@@H]5C[C@](C)(O)CC[C@]5(C)[C@H]4CC[C@]23C)cc1C [Compound 17] | 50 to 100
C[C@@]1(O)CC[C@@]2(C)[C@H](CC[C@@H]3[C@@H]2CC[C@]2(C)[C@@H](C(=O)c4ccc5ccccc5c4)CC[C@@H]32)C1 [Compound 18] | 50 to 100
C[C@@]1(O)CC[C@H]2[C@H](CC[C@@H]3[C@@H]2CC[C@]2(C)[C@@H](C(=O)c4ccc5ccccc5c4)CC[C@@H]32)C1 [Compound 19] | 50 to 100
Cc1ccc(C(=O)[C@H]2CC[C@H]3[C@@H]4CC[C@@H]5C[C@](C)(O)CC[C@@H]5[C@H]4CC[C@]23C)cc1C [Compound 20] | 50 to 100
COc1cc(OC)cc(C(=O)[C@H]2CC[C@H]3[C@@H]4CC[C@@H]5C[C@](C)(O)CC[C@]5(C)[C@H]4CC[C@]23C)c1 [Compound 21] | > 100
C[C@@]1(O)CC[C@@]2(C)[C@H](CC[C@@H]3[C@@H]2CC[C@]2(C)[C@@H](C(=O)c4ccc(-c5ccccc5)cc4)CC[C@@H]32)C1 [Compound 22] | 50 to 100
C[C@@]1(O)CC[C@@]2(C)[C@H](CC[C@@H]3[C@@H]2CC[C@]2(C)[C@@H](C(=O)c4cc(F)cc(F)c4)CC[C@@H]32)C1 [Compound 23] | 50 to 100
C[C@@]1(O)CC[C@@]2(C)[C@H](CC[C@@H]3[C@@H]2CC[C@]2(C)[C@@H](C(=O)c4ccc5c(c4)OCO5)CC[C@@H]32)C1 [Compound 24] | < 20
CSc1ccc(C(=O)[C@H]2CC[C@H]3[C@@H]4CC[C@@H]5C[C@](C)(O)CC[C@@H]5[C@H]4CC[C@]23C)cc1 [Compound 25] | 20 to 50
Cc1cc(C(=O)[C@H]2CC[C@H]3[C@@H]4CC[C@@H]5C[C@](C)(O)CC[C@@H]5[C@H]4CC[C@]23C)ccc1F [Compound 26] | 20 to 50
Cc1ccc(C(=O)[C@H]2CC[C@H]3[C@@H]4CC[C@@H]5C[C@](C)(O)CC[C@]5(C)[C@H]4CC[C@]23C)cc1F [Compound 27] | 20 to 50
C[C@@]1(O)CC[C@@]2(C)[C@H](CC[C@@H]3[C@@H]2CC[C@]2(C)[C@@H](C(=O)c4ccccc4)CC[C@@H]32)C1 [Compound 28] | 20 to 50

Structure (SMILES) | IC50 [nM]
CN(C)c1ccc(C(=O)[C@H]2CC[C@H]3[C@@H]4CC[C@@H]5C[C@](C)(O)CC[C@@H]5[C@H]4CC[C@]23C)cc1 [Compound 32] | 20 to 50
COc1ccc(C(=O)[C@H]2CC[C@H]3[C@@H]4CC[C@@H]5C[C@](C)(O)CC[C@]5(C)[C@H]4CC[C@]23C)c(C)c1 [Compound 33] | > 100
C[C@@]1(O)CC[C@H]2[C@H](CC[C@@H]3[C@@H]2CC[C@]2(C)[C@@H](C(=O)c4ccc(OC(F)(F)F)cc4)CC[C@@H]32)C1 [Compound 34] | < 20
C[C@@]1(O)CC[C@H]2[C@H](CC[C@@H]3[C@@H]2CC[C@]2(C)[C@@H](C(=O)c4ccc5c(c4)OCO5)CC[C@@H]32)C1 [Compound 35] | < 20
C[C@@]1(O)CC[C@@]2(C)[C@@H](CC[C@@H]3[C@@H]2CC[C@]2(C)[C@@H](C(=O)c4cc(F)cc(F)c4)CC[C@@H]32)C1 [Compound 37] | 50 to 100
Cc1cc(C(=O)[C@H]2CC[C@H]3[C@@H]4CC[C@H]5C[C@](C)(O)CC[C@]5(C)[C@H]4CC[C@]23C)ccc1F [Compound 38] | 50 to 100
Cc1ccc(C(=O)[C@H]2CC[C@H]3[C@@H]4CC[C@H]5C[C@](C)(O)CC[C@]5(C)[C@H]4CC[C@]23C)cc1C [Compound 39] | 50 to 100
CN(C)c1ccc(C(=O)[C@H]2CC[C@H]3[C@@H]4CC[C@@H]5C[C@](C)(O)CC[C@]5(C)[C@H]4CC[C@]23C)cc1 [Compound 40] | 20 to 50
Cc1ccc(C(=O)[C@H]2CC[C@H]3[C@@H]4CC[C@@H]5C[C@](C)(O)CC[C@@H]5[C@H]4CC[C@]23C)cc1F [Compound 41] | 20 to 50
CCc1ccc(C(=O)[C@H]2CC[C@H]3[C@@H]4CC[C@@H]5C[C@](C)(O)CC[C@@H]5[C@H]4CC[C@]23C)cc1 [Compound 42] | < 20
COc1ccc(C(=O)[C@H]2CC[C@H]3[C@@H]4CC[C@@H]5C[C@](C)(O)CC[C@@H]5[C@H]4CC[C@]23C)c(C)c1 [Compound 43] | 20 to 50
C[C@@]1(O)CC[C@H]2[C@H](CC[C@@H]3[C@@H]2CC[C@]2(C)[C@@H](C(=O)c4ccc(-c5ccccc5)cc4)CC[C@@H]32)C1 [Compound 44] | 50 to 100
Cc1ccc(C(=O)[C@H]2CC[C@H]3[C@@H]4CC[C@H]5C[C@](C)(O)CC[C@]5(C)[C@H]4CC[C@]23C)cc1F [Compound 45] | > 100
Cc1ccsc1C(=O)[C@H]1CC[C@H]2[C@@H]3CC[C@@H]4C[C@](C)(O)CC[C@@H]4[C@H]3CC[C@]12C [Compound 46] | > 100
C[C@@]1(O)CC[C@@]2(C)[C@H](CC[C@@H]3[C@@H]2CC[C@]2(C)[C@@H](C(=O)c4ccc(OC(F)(F)F)cc4)CC[C@@H]32)C1 [Compound 47] | 20 to 50
CSc1ccc(C(=O)[C@H]2CC[C@H]3[C@@H]4CC[C@@H]5C[C@](C)(O)CC[C@]5(C)[C@H]4CC[C@]23C)cc1 [Compound 48] | 20 to 50
CCc1ccc(C(=O)[C@H]2CC[C@H]3[C@@H]4CC[C@@H]5C[C@](C)(O)CC[C@]5(C)[C@H]4CC[C@]23C)cc1 [Compound 49] | < 20
COc1ccccc1C(=O)[C@H]1CC[C@H]2[C@@H]3CC[C@@H]4C[C@](C)(O)CC[C@@H]4[C@H]3CC[C@]12C [Compound 50] | > 100
C[C@@]1(O)CC[C@@]2(C)[C@H](CC[C@@H]3[C@@H]2CC[C@]2(C)[C@@H](C(=O)c4ccc(Cl)cc4)CC[C@@H]32)C1 [Compound 51] | 50 to 100
C[C@@]1(O)CC[C@H]2[C@H](CC[C@@H]3[C@@H]2CC[C@]2(C)[C@@H](C(=O)c4ccc(Cl)cc4)CC[C@@H]32)C1 [Compound 52] | 20 to 50
COc1ccccc1C(=O)[C@H]1CC[C@H]2[C@@H]3CC[C@@H]4C[C@](C)(O)CC[C@]4(C)[C@H]3CC[C@]12C [Compound 53] | > 100
C[C@@]1(O)CC[C@@]2(C)[C@H](CC[C@@H]3[C@@H]2CC[C@]2(C)[C@@H](C(=O)c4ccc(F)cc4)CC[C@@H]32)C1 [Compound 54] | 50 to 100
C[C@@]1(O)CC[C@H]2[C@H](CC[C@@H]3[C@@H]2CC[C@]2(C)[C@@H](C(=O)c4ccc(F)cc4)CC[C@@H]32)C1 [Compound 55] | 20 to 50
C[C@@]1(O)CC[C@H]2[C@H](CC[C@@H]3[C@@H]2CC[C@]2(C)[C@@H](C(=O)c4cccc(F)c4)CC[C@@H]32)C1 [Compound 56] | 20 to 50
C[C@@]1(O)CC[C@H]2[C@@H](CC[C@@H]3[C@@H]2CC[C@]2(C)[C@@H](C(=O)c4ccc(-c5ccccc5)cc4)CC[C@@H]32)C1 [Compound 58] | 50 to 100
